Measurements: ChEMBL document CHEMBL1201862, “PubChem BioAssay data set” (2004)
Active and inactive are the calls of the source.

Experiments:
[1] = target: T1, Neuropeptide Y receptor type 2 (Homo sapiens, UniProt P49146); format: functional, cell-based;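 as to IC50: HEK293 cells expressing the receptor and a CNG channel; stimulus was NPY near EC95 followed by isoproterenol to raise cAMP; antagonist potency measured as restoring cAMP signal that NPY suppresses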
[2] = toxicity toward HEK293 cells – cell-based, dry powder samples, cytotoxicity control, dose response (AID 720567); format: functional
[3] = viability loss in HEK293T cells – cell-based, cherry-picks, cytotoxicity control for HIV Vif inhibitor project, dose response (AID 652208); format: functional
[4] = target: T2, Neuropeptide Y receptor type 1 (Homo sapiens, UniProt P25929); format: functional;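 as to IC50: HEK293 cells with a CNG channel challenged with NPY then isoproterenol; potency as antagonist that reverses NPY suppression of cAMP signal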
T2 sequence (P25929 whole entry): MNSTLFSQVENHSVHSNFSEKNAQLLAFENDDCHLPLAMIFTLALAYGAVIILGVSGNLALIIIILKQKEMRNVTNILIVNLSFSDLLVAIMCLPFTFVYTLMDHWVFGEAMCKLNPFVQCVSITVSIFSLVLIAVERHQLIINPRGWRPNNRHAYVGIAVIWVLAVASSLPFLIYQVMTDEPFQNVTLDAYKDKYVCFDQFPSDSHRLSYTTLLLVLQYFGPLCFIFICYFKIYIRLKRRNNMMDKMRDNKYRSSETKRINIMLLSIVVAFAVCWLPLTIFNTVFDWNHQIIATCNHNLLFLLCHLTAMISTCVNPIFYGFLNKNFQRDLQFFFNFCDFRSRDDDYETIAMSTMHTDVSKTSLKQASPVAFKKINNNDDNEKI

[5] = Luminescence Cell-Based Dose Retest to Confirm Inhibitors of Cancer Stem Cells. [Related pubchem assays (depositor defined):AID2717, AID2721]; format: functional; settings: Homo sapiens
HeLa = experiment: Cytotoxicity counterscreen assay for transcriptional activators of heat shock protein 70 (Hsp70). [Related pubchem assays: 1203, 1252 ]; format: functional; settings: Homo sapiens
[6] = NIH-3T3 fibroblast cytotoxicity, dose response, cytotoxicity control, cell-based, fluorescence, Alamar Blue, secondary assay (AID 2327); format: functional;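 also: NIH-3T3 mouse fibroblasts cultured with fluconazole at 8 µg/mL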
[7] = Trypanosoma cruzi growth suppression in host cells – NIH3T3 host cells, beta-gal luminescence, confirmation (AID 2044); format: functional, cell-based;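 also: intracellular parasites grown in NIH/3T3 mouse fibroblasts as host cells; luminescent beta-galactosidase reporter signal from transgenic T. cruzi replicating inside host cells; inhibitors lower the luminescence signal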
cells [8] = format: functional, cell-based
INS1 = experiment: INS-1E survival protection against cytokine death – cell-based, luminescence, retest, dose response (AID 449756); format: functional; settings: Rattus norvegicus;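 also: cell death triggered by IL-1 beta plus TNF-alpha plus IFN-gamma mixture; protective hits raise ATP signal compared with cytokine alone wells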
HEK293 [9] = experiment: EBV LMP1 TES2 canonical NF-kB signalling blockers – cell-based, HEK293, luciferase, cherry-pick, dose response (AID 588343); format: functional; settings: Homo sapiens
Nonstructural protein 1 = Nonstructural protein 1 (Influenza A virus, UniProt Q194T2); format: functional, Influenza A virus (A/California/07/2009(H1N1))
Chain of Nonstructural protein 1 (Q194T2 whole entry): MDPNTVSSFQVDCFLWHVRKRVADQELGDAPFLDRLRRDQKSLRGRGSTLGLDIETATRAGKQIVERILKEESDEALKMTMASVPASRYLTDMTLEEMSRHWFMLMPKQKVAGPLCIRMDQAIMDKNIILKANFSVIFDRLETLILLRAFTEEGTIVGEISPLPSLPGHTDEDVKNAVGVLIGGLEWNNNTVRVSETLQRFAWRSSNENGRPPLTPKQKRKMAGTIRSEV

[10] = Luminescence-based counterscreen assay for KLF5 inhibitors: dose response cell-based high throughput screening assay to identify cytotoxic compounds using the IEC-6 intestinal epithelial cell line. [Related pubchem assays: 1700 (Primary screen.), 1834 (Confirmation screen.), 1858 (Summary AID.), 1905 (Counterscreen.)]; format: functional
[11] = fluconazole-exposed Candida albicans growth modulators – fluorescence, retest, confirmation (AID 2467); format: functional, cell-based
[12] = NIH3T3 cell viability loss – ATP luminescence, mouse fibroblasts, counter-screen, dose response (AID 2010); format: functional, cell-based;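 also: cells exposed to compound for about 90 hours before reading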
cells [13] = format: functional, cell-based; remark: listed apart in the source
cells [14] = experiment: cells
Vero = experiment: viability of Vero cells under compound – cytotoxicity control for flavivirus capping enzyme inhibitors (AID 588742); format: functional; settings: Chlorocebus sabaeus
[15] = target: T3, High affinity choline transporter 1 (Homo sapiens, UniProt Q9GZV3); experiment: human choline transporter blockers, potency – cell-based, 10-point CRC, membrane potential dye, dose response (AID 588401); format: functional;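 also: membrane potential dye fluorescence of choline-evoked depolarization via CHT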
T3 sequence (Q9GZV3 whole entry): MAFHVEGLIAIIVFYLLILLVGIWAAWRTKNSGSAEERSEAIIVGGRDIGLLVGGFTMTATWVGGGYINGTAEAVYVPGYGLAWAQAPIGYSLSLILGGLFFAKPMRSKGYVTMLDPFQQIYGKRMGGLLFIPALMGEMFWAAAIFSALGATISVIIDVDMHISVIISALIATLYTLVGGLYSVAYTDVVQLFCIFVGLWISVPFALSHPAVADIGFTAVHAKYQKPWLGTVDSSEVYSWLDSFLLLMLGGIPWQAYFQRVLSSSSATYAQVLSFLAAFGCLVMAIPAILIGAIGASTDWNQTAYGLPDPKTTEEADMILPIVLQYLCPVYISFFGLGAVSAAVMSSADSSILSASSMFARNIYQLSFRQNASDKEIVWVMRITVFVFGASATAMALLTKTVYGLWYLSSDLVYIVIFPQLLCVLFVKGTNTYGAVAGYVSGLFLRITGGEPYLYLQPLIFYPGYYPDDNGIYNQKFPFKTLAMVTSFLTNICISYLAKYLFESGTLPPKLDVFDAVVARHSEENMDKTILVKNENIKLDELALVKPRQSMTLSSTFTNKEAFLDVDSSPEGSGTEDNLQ

[16] = target: T4, Replicative DNA helicase DnaB (Mycobacterium tuberculosis, UniProt P9WMR3); experiment: DnaB intein splicing inhibitors, dose response, biochemical, cell-free fluorescence (AID 449749); format: functional
T4 sequence (P9WMR3 whole entry): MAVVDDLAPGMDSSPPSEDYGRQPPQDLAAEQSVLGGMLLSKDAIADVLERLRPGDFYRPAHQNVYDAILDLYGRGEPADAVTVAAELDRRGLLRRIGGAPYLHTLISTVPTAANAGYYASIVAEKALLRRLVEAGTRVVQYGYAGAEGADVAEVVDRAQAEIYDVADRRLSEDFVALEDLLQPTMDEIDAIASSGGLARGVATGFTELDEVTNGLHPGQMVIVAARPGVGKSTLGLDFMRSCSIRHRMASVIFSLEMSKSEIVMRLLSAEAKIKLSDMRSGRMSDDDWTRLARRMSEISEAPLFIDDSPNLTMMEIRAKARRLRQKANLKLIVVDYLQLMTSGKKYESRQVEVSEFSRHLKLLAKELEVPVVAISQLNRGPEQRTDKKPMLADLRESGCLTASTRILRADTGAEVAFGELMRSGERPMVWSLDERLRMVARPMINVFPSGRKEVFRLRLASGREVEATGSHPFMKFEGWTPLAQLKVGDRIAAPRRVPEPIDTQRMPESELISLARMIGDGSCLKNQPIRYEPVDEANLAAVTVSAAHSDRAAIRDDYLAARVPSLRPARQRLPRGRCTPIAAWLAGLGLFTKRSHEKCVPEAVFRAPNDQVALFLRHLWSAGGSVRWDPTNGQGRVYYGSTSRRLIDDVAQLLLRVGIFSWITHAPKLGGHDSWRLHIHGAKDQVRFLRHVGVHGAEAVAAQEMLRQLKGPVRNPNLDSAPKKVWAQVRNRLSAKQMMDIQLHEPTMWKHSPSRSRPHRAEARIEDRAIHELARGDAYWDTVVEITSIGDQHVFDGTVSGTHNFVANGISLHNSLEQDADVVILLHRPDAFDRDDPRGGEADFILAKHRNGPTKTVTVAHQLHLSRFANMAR

[17] = target: T3, High affinity choline transporter 1; experiment: human choline transporter blockers, potency – cell-based, 5-point CRC, membrane potential dye, dose response (AID 504840); format: functional
[18] = non-specific 3'UTR reporter inhibition in Clone20-Shn3RL – cell-based, Renilla luciferase, cherry-picked, counter-screen for Shn3 inhibitor project, dose response (AID 624133); format: functional
[19] = target: Hepatocyte nuclear factor 4-alpha (Homo sapiens, UniProt P41235); format: functional, cell-based;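 also: biochemical luminescence-based dose-response counterscreen measuring inhibition of HNF4 dimerization, run alongside a screen for blockers of ABHD5–perilipin-5 interaction; split luciferase complementation of HNF4 fusion proteins in cell lysate measuring dimerization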
Chain of Hepatocyte nuclear factor 4-alpha (P41235 whole entry, the tested form may be a part): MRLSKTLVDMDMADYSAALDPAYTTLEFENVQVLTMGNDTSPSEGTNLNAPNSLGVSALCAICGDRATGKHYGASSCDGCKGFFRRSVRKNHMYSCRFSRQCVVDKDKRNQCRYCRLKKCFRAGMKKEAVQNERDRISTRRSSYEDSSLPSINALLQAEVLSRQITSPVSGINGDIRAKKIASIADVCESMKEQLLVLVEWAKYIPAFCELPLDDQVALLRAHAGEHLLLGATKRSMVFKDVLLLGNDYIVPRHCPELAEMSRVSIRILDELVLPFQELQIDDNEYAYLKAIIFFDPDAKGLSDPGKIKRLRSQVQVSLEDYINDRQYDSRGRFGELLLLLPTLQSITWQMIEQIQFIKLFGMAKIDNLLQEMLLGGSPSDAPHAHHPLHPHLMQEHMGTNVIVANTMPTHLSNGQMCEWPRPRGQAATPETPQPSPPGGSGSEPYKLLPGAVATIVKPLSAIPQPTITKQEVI

[20] = target: Potassium voltage-gated channel subfamily KQT member 2 (Rattus norvegicus, UniProt O88943, W236L); experiment: potentiation of rat KCNQ2 current – cell-based, automated electrophysiology, mechanism study for KCNQ2 potentiator project, dose response (AID 2603); format: functional
Chain of Potassium voltage-gated channel subfamily KQT member 2 (O88943 whole entry W236L): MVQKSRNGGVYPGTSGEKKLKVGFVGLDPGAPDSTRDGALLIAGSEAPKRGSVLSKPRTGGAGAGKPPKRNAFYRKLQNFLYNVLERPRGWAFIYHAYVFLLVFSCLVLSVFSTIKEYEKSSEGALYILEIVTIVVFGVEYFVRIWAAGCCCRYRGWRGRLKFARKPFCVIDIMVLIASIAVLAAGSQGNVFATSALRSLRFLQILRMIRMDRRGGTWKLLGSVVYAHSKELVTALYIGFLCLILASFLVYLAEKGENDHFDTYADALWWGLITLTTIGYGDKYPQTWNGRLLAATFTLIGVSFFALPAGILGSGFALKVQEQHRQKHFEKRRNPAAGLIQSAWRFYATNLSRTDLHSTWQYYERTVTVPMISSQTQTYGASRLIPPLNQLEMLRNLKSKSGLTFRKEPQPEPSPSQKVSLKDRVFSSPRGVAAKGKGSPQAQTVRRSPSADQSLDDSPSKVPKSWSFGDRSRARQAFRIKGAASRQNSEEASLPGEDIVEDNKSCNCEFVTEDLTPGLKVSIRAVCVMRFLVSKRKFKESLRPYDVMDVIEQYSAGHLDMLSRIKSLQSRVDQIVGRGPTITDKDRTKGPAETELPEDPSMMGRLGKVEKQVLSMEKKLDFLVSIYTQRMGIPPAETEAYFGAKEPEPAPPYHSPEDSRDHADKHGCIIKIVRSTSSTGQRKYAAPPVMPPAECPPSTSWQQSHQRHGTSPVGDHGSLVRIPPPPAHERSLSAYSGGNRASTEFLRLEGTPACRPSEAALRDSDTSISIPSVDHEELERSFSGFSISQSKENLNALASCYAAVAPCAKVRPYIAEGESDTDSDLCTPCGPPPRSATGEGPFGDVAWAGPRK

Genome polyprotein = Genome polyprotein (dengue virus type 2, UniProt P29990); experiment: flavivirus cap methylation enzyme inhibition – biochemical, confirmation dose response, primary screen (AID 588689); format: functional
Chain of Genome polyprotein (P29990 2492-3391 limits assumed): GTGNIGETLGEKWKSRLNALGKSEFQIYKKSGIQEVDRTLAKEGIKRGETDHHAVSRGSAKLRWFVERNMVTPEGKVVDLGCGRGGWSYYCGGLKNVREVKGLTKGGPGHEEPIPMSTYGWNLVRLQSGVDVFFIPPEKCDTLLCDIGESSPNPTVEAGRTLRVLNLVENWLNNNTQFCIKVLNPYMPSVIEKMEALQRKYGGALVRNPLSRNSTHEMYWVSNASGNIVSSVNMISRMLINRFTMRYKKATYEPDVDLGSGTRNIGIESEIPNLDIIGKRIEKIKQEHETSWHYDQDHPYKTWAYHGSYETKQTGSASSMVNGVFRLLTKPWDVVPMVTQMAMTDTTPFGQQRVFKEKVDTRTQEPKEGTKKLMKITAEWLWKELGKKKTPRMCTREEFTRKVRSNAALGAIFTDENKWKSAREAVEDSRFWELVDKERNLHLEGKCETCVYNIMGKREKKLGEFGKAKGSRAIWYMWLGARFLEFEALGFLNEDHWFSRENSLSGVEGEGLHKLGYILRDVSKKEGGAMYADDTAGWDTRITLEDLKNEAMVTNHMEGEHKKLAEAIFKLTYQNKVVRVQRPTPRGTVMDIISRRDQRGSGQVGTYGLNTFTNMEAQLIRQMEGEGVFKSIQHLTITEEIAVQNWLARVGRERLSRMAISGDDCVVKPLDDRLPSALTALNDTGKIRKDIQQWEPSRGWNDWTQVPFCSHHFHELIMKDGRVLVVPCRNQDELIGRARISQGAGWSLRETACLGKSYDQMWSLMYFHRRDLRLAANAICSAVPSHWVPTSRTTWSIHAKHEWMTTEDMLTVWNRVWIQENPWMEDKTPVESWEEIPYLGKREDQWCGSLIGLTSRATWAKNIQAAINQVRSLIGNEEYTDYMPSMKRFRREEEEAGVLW

[21] = target: T5, Heat shock factor protein 1 (Mus musculus, UniProt P38532); experiment: decrease of HSF1-responsive luciferase luminescence – cell-based, NIH3T3, dose retest, confirmation (AID 2382); format: functional;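 also: NIH3T3 fibroblasts with HSF1-driven luciferase reporter stressed by proteasome inhibitor MG132; luminescence from HSF1-driven luciferase expression after 8 hours of MG132 stress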
T5 sequence (P38532 whole entry): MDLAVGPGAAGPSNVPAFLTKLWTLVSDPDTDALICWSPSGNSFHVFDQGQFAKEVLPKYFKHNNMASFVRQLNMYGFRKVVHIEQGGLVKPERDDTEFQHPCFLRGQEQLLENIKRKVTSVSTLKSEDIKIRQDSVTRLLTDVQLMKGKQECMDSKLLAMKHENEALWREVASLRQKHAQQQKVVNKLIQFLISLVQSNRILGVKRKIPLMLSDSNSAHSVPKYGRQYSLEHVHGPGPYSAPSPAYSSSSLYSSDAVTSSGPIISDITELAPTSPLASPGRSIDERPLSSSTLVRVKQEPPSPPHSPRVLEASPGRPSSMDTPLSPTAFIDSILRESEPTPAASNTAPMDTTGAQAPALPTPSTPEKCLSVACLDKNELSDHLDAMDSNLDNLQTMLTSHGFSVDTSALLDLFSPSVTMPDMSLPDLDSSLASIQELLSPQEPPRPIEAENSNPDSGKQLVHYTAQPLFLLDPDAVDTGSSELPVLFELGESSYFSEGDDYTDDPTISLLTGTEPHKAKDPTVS

Protein RecA = target: T6, Protein RecA (Mycobacterium tuberculosis, UniProt P9WHJ3); experiment: Fluorescence Cell-Free Homogeneous Dose Retest to Identify Inhibitors of RecA-Intein Splicing Activity. [Related pubchem assays (depositor defined):AID2097, AID2223, AID489010, AID492950]; format: functional
T6 sequence (P9WHJ3 whole entry): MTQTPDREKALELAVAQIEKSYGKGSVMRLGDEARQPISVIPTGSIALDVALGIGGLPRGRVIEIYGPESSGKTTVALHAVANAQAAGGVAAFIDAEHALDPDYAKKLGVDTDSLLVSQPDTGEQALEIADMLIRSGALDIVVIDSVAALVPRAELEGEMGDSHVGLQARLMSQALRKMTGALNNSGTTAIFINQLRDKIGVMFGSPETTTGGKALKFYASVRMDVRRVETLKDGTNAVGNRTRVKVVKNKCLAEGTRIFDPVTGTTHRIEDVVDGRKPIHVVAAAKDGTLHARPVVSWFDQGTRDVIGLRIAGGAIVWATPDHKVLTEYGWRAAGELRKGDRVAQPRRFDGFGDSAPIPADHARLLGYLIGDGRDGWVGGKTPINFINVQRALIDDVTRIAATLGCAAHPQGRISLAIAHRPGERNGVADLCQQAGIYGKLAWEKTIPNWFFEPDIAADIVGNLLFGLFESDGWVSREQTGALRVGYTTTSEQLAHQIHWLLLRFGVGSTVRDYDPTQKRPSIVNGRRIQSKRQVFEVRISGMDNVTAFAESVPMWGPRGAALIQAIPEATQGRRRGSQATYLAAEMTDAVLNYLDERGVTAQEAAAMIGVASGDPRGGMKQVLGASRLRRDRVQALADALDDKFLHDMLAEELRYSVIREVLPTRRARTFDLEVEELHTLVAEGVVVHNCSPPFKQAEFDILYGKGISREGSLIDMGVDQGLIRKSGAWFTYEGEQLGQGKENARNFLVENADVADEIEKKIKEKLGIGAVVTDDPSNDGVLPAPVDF

[22] = reduction of Shn3 3'UTR-driven luciferase in osteoblasts – cell-based, Clone20 osteoblasts, firefly luciferase, cherry-picked, dose response (AID 624132); format: functional;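 also: firefly luciferase luminescence from reporter carrying the Shn3 3'UTR in osteoblasts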
[23] = Intein inhibitors as potential Tuberculosis drugs, a cytotoxicity screen. [Related pubchem assays (depositor defined):AID2221, AID2223, AID434968, AID435010, AID449749, AID449750, AID489010]; format: functional
[24] = target: T1, Neuropeptide Y receptor type 2; experiment: Fluorescence-based cell-based high-throughput dose response assay for agonists of NPY-Y2. [Related pubchem assays: 1703 (Screening assay (CNGC inhibitors).), 1359 (Screening assay (NPY-Y2 potentiators or agonists).), 1304 (Screening assay (NPY-Y1 potentiators or agonists).), 1710 (Screening assay (NPY-Y2 agonists).), 1791 (Summary AID.)]; format: functional
[25] = target: T2, Neuropeptide Y receptor type 1; experiment: Fluorescence-based counterscreen for agonists of NPY-Y2: cell-based high-throughput dose response assay for agonists of NPY-Y1.; format: functional
HEK293 [26] = experiment: Fluorescence-based counterscreen for potentiators or agonists of NPY-Y2: cell-based high-throughput dose response assay to identify inhibitors of cyclic nucleotide gated ion channel (CNGC) activity. In this assay, the parental HEK293 cell line transfected with a cyclic-nucleotide gated ion channel (CNGC)-based cAMP sensor is used to measure inhibition of isoproterenol-induced CNGC activity by test compound.; format: functional; settings: Homo sapiens

T1 sequence (P49146 whole entry): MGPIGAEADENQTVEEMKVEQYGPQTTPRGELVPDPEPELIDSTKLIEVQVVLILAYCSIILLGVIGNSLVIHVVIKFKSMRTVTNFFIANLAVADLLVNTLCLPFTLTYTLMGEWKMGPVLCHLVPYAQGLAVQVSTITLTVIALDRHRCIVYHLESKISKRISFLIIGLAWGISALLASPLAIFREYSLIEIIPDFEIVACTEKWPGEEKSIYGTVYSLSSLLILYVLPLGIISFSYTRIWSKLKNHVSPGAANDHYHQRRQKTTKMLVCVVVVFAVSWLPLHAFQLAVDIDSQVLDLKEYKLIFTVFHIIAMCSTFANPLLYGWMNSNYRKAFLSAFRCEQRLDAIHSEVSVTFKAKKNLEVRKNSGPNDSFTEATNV

## Cc1ccc(CCC(=O)Nc2ncc(Cc3cc(Cl)ccc3Cl)s2)o1
[1]
  IC50: 9.88 µM (active)
[2]
  AC50: 7.96 µM (active)
[3]
  AC50: 34.7 µM (active)
[4]
  IC50: 7.27 µM (active)
[5]
  AC50: 0.251 µM (active)

## CCOc1ccc(NC(=O)c2ccc(NC(S)=NC3CC3)cc2)cc1
HeLa
  CC50: > 99 µM (not active)

## O=C(N/N=C/c1c(O)ccc2ccccc12)c1cccnc1
[6]
  EC50: > 160 µM (inactive)
[7]
  EC50: 3.14 µM (active)
Cells [8]
  EC50: 8.55 µM (active)
INS1
  AC50: 0.794 µM (active)
HEK293 [9]
  AC50: 7.53 µM (active)
Nonstructural protein 1
  IC50: 12.1 µM (active)
[10]
  IC50: 3.67 µM (active)
[11]
  EC50: 1.3 µM (active)
[12]
  EC50: 9.03 µM (active)
Cells [13]
  EC50: > 350 µM (not active)

## Cc1c(Cc2ccccc2)c(=O)oc2cc(O)cc(O)c12
Cells [14]
  IC50: 36.1 µM (active)

## CC(C)c1nnc(NC(=O)c2nc(S(=O)(=O)Cc3ccc(F)cc3)ncc2Cl)s1
Vero
  CC50: 27.1 µM (active)
[15]
  IC50: 4.47 µM (active)
[16]
  AC50: 3.54 µM (active)
[17]
  IC50: 6.08 µM (active)
[18]
  AC50: 4.34 µM (active)
[19]
  IC50: 4.69 µM (active)
[20]
  EC50: 4.47 µM (active)
Genome polyprotein
  IC50: 96 µM (active)
[21]
  EC50: 3.33 µM (active)
Protein RecA
  EC50: 2.73 µM (active)
[22]
  AC50: 2.83 µM (active)
[23]
  CC50: 28.1 µM (active)

## Cc1c(C(=O)O)[nH]c2ccc([N+](=O)[O-])cc12
[24]
  EC50: 6.99 µM (active)
[25]
  EC50: 6.64 µM (active)
HEK293 [26]
  EC50: 6.29 µM (active)
